According to ChEMBL document CHEMBL2151039, “Discovery and development of α7 nicotinic acetylcholine receptor modulators” (J Med Chem, 2011):

Legend:
[1] = target: T1, Neuronal acetylcholine receptor subunit alpha-7 (Homo sapiens, UniProt P36544); experiment: Binding affinity to alpha7 nAchR in human frontal cortex membranes; format: cell membranes, Membrane
[2] = target: T2, 5-hydroxytryptamine receptor 3A (Homo sapiens, UniProt P46098); experiment: Displacement of [3H]-BRL-43694 from human 5HT3 receptor
T2 sequence (P46098 whole entry): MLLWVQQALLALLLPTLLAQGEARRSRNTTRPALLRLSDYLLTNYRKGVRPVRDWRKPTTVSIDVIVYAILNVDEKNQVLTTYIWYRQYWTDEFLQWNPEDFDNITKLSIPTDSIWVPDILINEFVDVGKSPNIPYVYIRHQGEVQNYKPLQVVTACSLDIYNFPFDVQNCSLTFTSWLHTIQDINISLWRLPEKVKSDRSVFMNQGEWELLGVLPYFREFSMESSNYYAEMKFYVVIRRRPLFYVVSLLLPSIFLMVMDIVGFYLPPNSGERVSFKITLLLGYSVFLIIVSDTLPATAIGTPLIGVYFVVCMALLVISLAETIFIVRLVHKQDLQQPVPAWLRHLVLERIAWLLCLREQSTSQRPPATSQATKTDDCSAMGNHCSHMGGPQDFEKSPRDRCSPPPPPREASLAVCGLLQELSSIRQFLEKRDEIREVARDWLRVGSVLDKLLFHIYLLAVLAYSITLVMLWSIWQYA

[3] = Volume of distribution in dog; format: ADME, organism-based, Canis lupus familiaris; details: in vivo
[4] = Oral bioavailability in dog; format: ADME, organism-based, Canis lupus familiaris; details: in vivo
[5] = target: T3, Neuronal acetylcholine receptor subunit alpha-7 (Rattus norvegicus, UniProt Q05941); experiment: Displacement of [3H]-MLA from alpha7 nAChR in rat brain membranes; format: cell membranes
T3 sequence (Q05941 whole entry): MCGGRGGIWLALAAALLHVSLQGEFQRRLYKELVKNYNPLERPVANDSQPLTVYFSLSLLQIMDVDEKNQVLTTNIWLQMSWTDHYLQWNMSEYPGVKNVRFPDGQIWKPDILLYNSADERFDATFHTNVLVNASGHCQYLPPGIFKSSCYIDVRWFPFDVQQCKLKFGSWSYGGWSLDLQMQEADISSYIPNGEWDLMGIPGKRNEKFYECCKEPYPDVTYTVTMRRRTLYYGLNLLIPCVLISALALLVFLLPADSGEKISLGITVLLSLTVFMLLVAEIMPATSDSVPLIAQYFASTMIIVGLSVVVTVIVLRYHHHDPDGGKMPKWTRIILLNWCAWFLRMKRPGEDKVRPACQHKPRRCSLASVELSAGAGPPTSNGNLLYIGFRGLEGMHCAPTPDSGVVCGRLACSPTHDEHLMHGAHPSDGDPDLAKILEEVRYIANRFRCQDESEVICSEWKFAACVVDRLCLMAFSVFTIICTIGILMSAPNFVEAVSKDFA

[6] = target: Neuronal acetylcholine receptor; alpha4/beta2 (Homo sapiens, UniProt P17787+P43681); experiment: Binding affinity to alpha4beta2 nAChR; format: protein-complex assay
Neuronal acetylcholine receptor; alpha4/beta2, sequence (P17787 whole entry): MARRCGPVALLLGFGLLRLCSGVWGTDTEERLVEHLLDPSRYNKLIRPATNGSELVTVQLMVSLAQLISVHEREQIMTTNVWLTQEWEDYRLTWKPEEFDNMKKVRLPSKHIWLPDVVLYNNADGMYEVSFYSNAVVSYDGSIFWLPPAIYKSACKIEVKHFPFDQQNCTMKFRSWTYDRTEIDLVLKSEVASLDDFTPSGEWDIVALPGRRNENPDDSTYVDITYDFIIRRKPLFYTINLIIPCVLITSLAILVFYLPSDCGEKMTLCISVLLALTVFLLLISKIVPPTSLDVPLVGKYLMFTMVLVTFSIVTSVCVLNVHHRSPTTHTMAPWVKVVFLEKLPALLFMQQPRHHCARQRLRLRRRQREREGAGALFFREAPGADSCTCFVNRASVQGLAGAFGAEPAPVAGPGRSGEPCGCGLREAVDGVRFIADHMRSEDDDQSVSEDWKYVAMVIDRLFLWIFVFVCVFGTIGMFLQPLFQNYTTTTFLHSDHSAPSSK
Neuronal acetylcholine receptor; alpha4/beta2, sequence (P43681 whole entry): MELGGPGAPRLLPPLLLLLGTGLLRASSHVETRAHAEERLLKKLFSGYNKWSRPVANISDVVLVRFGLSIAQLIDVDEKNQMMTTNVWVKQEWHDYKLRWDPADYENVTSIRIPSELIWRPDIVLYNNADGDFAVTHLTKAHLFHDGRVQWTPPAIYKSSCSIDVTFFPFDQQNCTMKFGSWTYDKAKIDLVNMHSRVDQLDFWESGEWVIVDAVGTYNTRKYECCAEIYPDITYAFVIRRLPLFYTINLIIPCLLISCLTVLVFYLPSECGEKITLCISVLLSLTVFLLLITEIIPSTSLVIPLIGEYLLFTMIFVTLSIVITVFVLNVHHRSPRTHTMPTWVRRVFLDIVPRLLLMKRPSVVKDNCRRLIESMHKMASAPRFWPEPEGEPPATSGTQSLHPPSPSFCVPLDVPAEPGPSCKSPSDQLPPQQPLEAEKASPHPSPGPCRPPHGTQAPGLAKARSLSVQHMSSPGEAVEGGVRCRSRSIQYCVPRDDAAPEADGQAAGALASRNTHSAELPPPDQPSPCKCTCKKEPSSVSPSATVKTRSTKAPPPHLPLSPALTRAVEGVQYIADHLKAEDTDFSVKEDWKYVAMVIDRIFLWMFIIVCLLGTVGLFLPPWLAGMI

[7] = target: T1, Neuronal acetylcholine receptor subunit alpha-7; experiment: Agonist activity at alpha7 nAChR; format: functional
[8] = target: T3, Neuronal acetylcholine receptor subunit alpha-7; experiment: Binding affinity to alpha7 nAChR in rat brain membranes; format: cell membranes
[9] = Volume of distribution in mouse; format: ADME, organism-based; details: in vivo
[10] = Oral bioavailability in rat; format: ADME, organism-based; details: in vivo
[11] = Oral bioavailability in mouse; format: ADME, organism-based; details: in vivo
[12] = Volume of distribution in rat; format: ADME, organism-based; details: in vivo

T1 sequence (P36544 whole entry): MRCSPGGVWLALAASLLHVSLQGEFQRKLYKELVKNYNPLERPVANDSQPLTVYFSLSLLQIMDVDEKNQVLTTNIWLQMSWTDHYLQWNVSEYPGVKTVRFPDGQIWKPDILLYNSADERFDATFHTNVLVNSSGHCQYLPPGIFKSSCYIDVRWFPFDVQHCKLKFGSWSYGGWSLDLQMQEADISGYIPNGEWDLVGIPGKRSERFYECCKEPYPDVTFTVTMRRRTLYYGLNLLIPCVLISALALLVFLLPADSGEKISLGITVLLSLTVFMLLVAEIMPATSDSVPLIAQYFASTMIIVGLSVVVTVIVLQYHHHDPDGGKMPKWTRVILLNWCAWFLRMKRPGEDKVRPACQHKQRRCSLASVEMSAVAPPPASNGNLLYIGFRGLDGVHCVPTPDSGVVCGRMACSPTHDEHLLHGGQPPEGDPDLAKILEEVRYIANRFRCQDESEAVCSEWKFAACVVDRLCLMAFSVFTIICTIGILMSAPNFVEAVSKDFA

## CN1CC2CN(c3ccc(-c4ccccc4)nn3)CC2C1 (configuration not stated)
[1]
  Ki: 17 nM
[2]
  Ki: 150 nM
[3]
  Vd: 4 L/kg
[4]
  bioavailability: 22%
[5]
  Ki: 88 nM
[6]
  Ki: > 100000 nM
[7]
  EC50: 4260 nM
[8]
  Ki: 10.8 nM
[9]
  Vd: 4 L/kg
[10]
  bioavailability: 90%
[11]
  bioavailability: 100%
[12]
  Vd: 4 L/kg
